Data: US8598173B2, “1-[(6,7-substituted alkoxyquinoxalinyl)aminocarbonyl]-4-(hetero)arylpiperazine derivatives for treating tumors” (Korea Research Institute of Chemical Technology, priority 2004, dated 2013)
Read-outs that look alike come from different tables or passages of the source.

Legend:
MDA-MB-231 (breast) = assay: Cell growth inhibition assay (SRB), MDA-MB-231; assay type: cell-based, human; conditions: Homo sapiens, SRB method, 96 hours incubation
Procedure: (§1) OVCAR-3, MCF-7, PC3, HepG2, A549, HT-29 and MKN-45 were grown in RPMI1640 medium (Invitrogen, Carlsbad, Calif.) supplemented with 10% fetal bovine serum (‘FBS’), 1 mM sodium pyruvate, 10 mM HEPES and 100 U/ml penicillin and […] streptomycin (‘P/S’). MDA-MB-231, HCT116, UMRC2, Caki-1, PANC-1 and HEK293 cells were maintained in Dulbecco's modified Eagle's medium (‘DMEM’, Invitrogen) supplemented with 10% FBS, P/S, 10 mM HEPES and 2 mM L-glutamine. HUVEC was maintained in M199 supplemented with basic fibroblast growth factor (‘bFGF’) […] and FBS 20%. All cells were incubated at 37° C. under humidified 5% CO2.
(§2) The growth inhibition of the substituted quinoxalin-piperazine compounds against a variety of human tumor cells was evaluated. The relative importance of particular substituent groups on the compounds was also studied. The substituted piperazine derivative compounds, prepared as described above, were tested, along with DMSO as a control.
(§3) The growth inhibition assay of various compounds against human tumor cell lines was performed using the Sulforhodamine B (‘SRB’) method (Skehan et al., J. National Cancer Institute, 1990, 82, 1107-1112). […] Triplicate wells were used for each treatment. The cells were incubated with the various compounds for 96 hours at 37° C. in a humidified 5% CO2 atmosphere. After 96-hour incubation, cells were fixed with 10% trichloroacetic acid (‘TCA’), incubated for 1 hour at 4° C., and washed 3 times with tap water. Subsequently cells were stained with 0.4% sulforhodamine B in 1% acetic acid for 30 minutes, washed 4 times with 1% acetic acid, and air-dried again. After 5 minutes agitation in 10 mM Tris solution, the absorbance of each well was measured at 530 nm using Benchmark Plus Microplate reader (Bio-Rad Laboratories, Hercules, Calif.).
(§4) To translate the OD530 values into the number of live cells in each well, the OD530 values were compared to those on standard OD530-versus-cell number curves generated for each cell line. The percent survival was calculated using the formula: % Survival=live cell number[test]/live cell number[control]×100
(§5) The IC50 values were calculated by non-linear regression analysis.

UMRC2 (kidney) = assay: Cell growth inhibition assay (SRB), UMRC2; assay type: cell-based, human; conditions: Homo sapiens, SRB method, 96 hours incubation
Procedure: as §1, §2, §3, §4, §5

PANC-1 (pancreas) = assay: Cell growth inhibition assay (SRB), PANC-1; assay type: cell-based, human; conditions: Homo sapiens, SRB method, 96 hours incubation
Procedure: as §1, §2, §3, §4, §5

MKN-45 (stomach) = assay: Cell growth inhibition assay (SRB), MKN-45; assay type: cell-based; conditions: Homo sapiens, SRB method, 96 hours incubation
Procedure: as §1, §2, §3, §4, §5

HepG2 (liver) = assay: Cell growth inhibition assay (SRB), HepG2; assay type: cell-based; conditions: Homo sapiens, SRB method, 96 hours incubation
Procedure: as §1, §2, §3, §4, §5

HT-29 (colon) = assay: Cell growth inhibition assay (SRB), HT-29; assay type: cell-based; conditions: Homo sapiens, SRB method, 96 hours incubation
Procedure: as §1, §2, §3, §4, §5

HCT116 (colon) = assay: Cell growth inhibition assay (SRB), HCT116; assay type: cell-based; conditions: Homo sapiens, HCT-116, SRB method, 96 hours incubation
Procedure: as §1, §2, §3, §4, §5

PC3 (prostate) = assay: Cell growth inhibition assay (SRB), PC3; assay type: cell-based; conditions: Homo sapiens, SRB method, 96 hours incubation
Procedure: as §1, §2, §3, §4, §5

OVCAR-3 (ovary) = assay: Cell growth inhibition assay (SRB), OVCAR-3; assay type: cell-based; conditions: Homo sapiens, SRB method, 96 hours incubation
Procedure: as §1, §2, §3, §4, §5

[1] = tested on: MCF-7 (breast, hormone-dependent); assay: Cell growth inhibition assay (SRB), MCF-7; assay type: cell-based; conditions: Homo sapiens, MCF7, SRB method, 96 hours incubation
Procedure: as §1, §2, §3, §4, §5

Caki-1 (kidney) = assay: Cell growth inhibition assay (SRB), Caki-1; assay type: cell-based; conditions: Homo sapiens, SRB method, 96 hours incubation
Procedure: as §1, §2, §3, §4, §5

A549 (lung) = assay: Cell growth inhibition assay (SRB), A549; assay type: cell-based; conditions: Homo sapiens, SRB method, 96 hours incubation
Procedure: as §1, §2, §3, §4, §5

[2] = MDA-MB-231, read-out: Inhibition of cell growth (IC50, μM) by quinoxaline-piperazine compounds against human cancer cell lines: MDA-MB-231
[3] = UMRC2, read-out: Inhibition of cell growth (IC50, μM) by quinoxaline-piperazine compounds against human cancer cell lines: UMRC2
[4] = PANC-1, read-out: Inhibition of cell growth (IC50, μM) by quinoxaline-piperazine compounds against human cancer cell lines: PANC-1
[5] = MKN-45, MKN45, read-out: Inhibition of cell growth (IC50, μM) by quinoxaline-piperazine compounds against human cancer cell lines: MKN45
[6] = HepG2, read-out: Inhibition of cell growth (IC50, μM) by quinoxaline-piperazine compounds against human cancer cell lines: HepG2
[7] = HT-29, HT29, read-out: Inhibition of cell growth (IC50, μM) by quinoxaline-piperazine compounds against human cancer cell lines: HT29
[8] = HCT116, read-out: Inhibition of cell growth (IC50, μM) by quinoxaline-piperazine compounds against human cancer cell lines: HCT116
[9] = PC-3, read-out: Inhibition of cell growth (IC50, μM) by quinoxaline-piperazine compounds against human cancer cell lines: PC-3
[10] = OVCAR-3, OVCAR3, read-out: Inhibition of cell growth (IC50, μM) by quinoxaline-piperazine compounds against human cancer cell lines: OVCAR3
[11] = read-out: Inhibition of cell growth (IC50, μM) by quinoxaline-piperazine compounds against human cancer cell lines: MCF7
[12] = Caki-1, read-out: Inhibition of cell growth (IC50, μM) by quinoxaline-piperazine compounds against human cancer cell lines: Caki-1
[13] = A549, read-out: Inhibition of cell growth (IC50, μM) by quinoxaline-piperazine compounds against human cancer cell lines: A549
[14] = MDA-MB-231 (breast), read-out: IC50, MDA-MB-231
[15] = UMRC2 (kidney), read-out: IC50, UMRC2
[16] = PANC-1 (pancreas), read-out: IC50, PANC-1
[17] = MKN-45 (stomach), read-out: IC50, MKN-45
[18] = HepG2 (liver), read-out: IC50, HepG2
[19] = HT-29 (colon), read-out: IC50, HT-29
[20] = HCT116 (colon), read-out: IC50, HCT116
[21] = PC3 (prostate), read-out: IC50, PC3
[22] = OVCAR-3 (ovary), read-out: IC50, OVCAR-3
[23] = MCF-7 (breast, hormone-dependent), read-out: IC50, MCF-7
[24] = Caki-1 (kidney), read-out: IC50, Caki-1
[25] = A549 (lung), read-out: IC50, A549

IC50 (MDA-MB-231 (breast); [2])	IC50 (PANC-1 (pancreas); [4])	IC50 (MKN-45 (stomach); [5])	IC50 (HepG2 (liver); [6])	IC50 (HT-29 (colon); [7])	IC50 (HCT116 (colon); [8])	IC50 (PC3 (prostate); [9])	IC50 (OVCAR-3 (ovary); [10])	IC50 [1, 11]	IC50 (A549 (lung); [13])	IC50 (MDA-MB-231 (breast); [14])	IC50 (PANC-1 (pancreas); [16])	IC50 (HCT116 (colon); [20])	IC50 (OVCAR-3 (ovary); [22])	IC50 [1, 23]	IC50 (A549 (lung); [25])	SMILES	IC50 (UMRC2 (kidney); [3])	IC50 (Caki-1 (kidney); [12])	IC50 (UMRC2 (kidney); [15])	IC50 (Caki-1 (kidney); [24])	also measured
0.012 µM	0.021 µM	0.02 µM	0.019 µM	0.021 µM	0.019 µM	0.021 µM	0.012 µM	0.025 µM	0.021 µM	–	–	–	–	–	–	COc1cc(OC)cc(N2CCN(C(=O)Nc3nc4cc(F)ccc4nc3OC)CC2)c1 [Compound 5, 1-[(6-Fluoro-2-methoxyquinoxalin-3-yl)aminocarbonyl]-4-(3,5-dimethoxyphenyl)piperazine]	0.013 µM	0.011 µM	–	–	–
0.05 µM	0.098 µM	0.064 µM	0.063 µM	0.079 µM	0.068 µM	0.076 µM	0.042 µM	0.076 µM	0.073 µM	–	–	–	–	–	–	COc1cc(OC)cc(N2CCN(C(=O)Nc3nc4cc(Cl)ccc4nc3OC)CC2)c1 [Compound 26, 1-[(6-Chloro-2-methoxyquinoxalin-3-yl)aminocarbonyl]-4-(3,5-dimethoxyphenyl)piperazine]	0.065 µM	0.053 µM	–	–	–
0.032 µM	0.07 µM	0.04 µM	0.045 µM	0.048 µM	0.047 µM	0.063 µM	0.023 µM	0.063 µM	0.055 µM	–	–	–	–	–	–	COc1cc(OC)cc(N2CCN(C(=O)Nc3nc4cc(C)ccc4nc3OC)CC2)c1 [Compound 47, 1-[(2-Methoxy-6-methylquinoxalin-3-yl)aminocarbonyl]-4-(3,5-dimethoxyphenyl)piperazine]	0.039 µM	0.029 µM	–	–	–
–	–	–	–	–	–	–	–	–	–	0.18 µM	0.28 µM	0.23 µM	0.13 µM	0.21 µM	0.24 µM	COc1cc(OC)cc(N2CCN(C(=O)Nc3nc4ccc(Cl)cc4nc3OC)CC2)c1 [Compound 110, 1-[(6-Chloro-3-methoxyquinoxalin-2-yl)aminocarbonyl]-4-(3,5-dimethoxyphenyl)piperazine]	–	–	0.21 µM	0.18 µM	IC50 (MKN-45 (stomach); [17]): 0.2 µM; IC50 (HepG2 (liver); [18]): 0.21 µM; IC50 (HT-29 (colon); [19]): 0.25 µM; IC50 (PC3 (prostate); [21]): 0.27 µM
–	–	–	–	–	–	–	–	–	–	0.17 µM	0.24 µM	0.48 µM	0.36 µM	0.6 µM	0.75 µM	COc1nc2cc(Cl)ccc2nc1NC(=O)N1CCN(c2cccc(Cl)c2)CC1 [Compound 120, 1-[(6-Chloro-3-methoxyquinoxalin-2-yl)aminocarbonyl]-4-(3-chlorophenyl)piperazine]	–	–	0.17 µM	0.4 µM	–
–	–	–	–	–	–	–	–	–	–	0.16 µM	0.36 µM	0.25 µM	0.14 µM	0.24 µM	0.24 µM	COc1cc(OC)cc(N2CCN(C(=O)Nc3nc4ccc(C)cc4nc3OC)CC2)c1 [Compound 131, 1-[(3-Methoxy-6-methylquinoxalin-2-yl)aminocarbonyl]-4-(3,5-dimethoxyphenyl)piperazine]	–	–	0.23 µM	0.19 µM	IC50 (MKN-45 (stomach); [17]): 0.22 µM; IC50 (HepG2 (liver); [18]): 0.23 µM; IC50 (HT-29 (colon); [19]): 0.34 µM; IC50 (PC3 (prostate); [21]): 0.35 µM
